The values below come from ChEMBL document CHEMBL1201862, “PubChem BioAssay data set” (2004).

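Assay format: 96-well plates, 48-hour exposure. At the GI50, growth is halved.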 The source made the active and inactive calls. Cut-off read from the data, not from the text of the source: active = GI50 up to about 1.1 µM and inactive = higher.

Among the test systems are U-251; CAKI-1; SN12C; Malme-3M; NCI/ADR-RES; MDA-MB-231; NCI-H226; KM12; NCI-H460; CCRF-CEM; COLO 205; SW-620; Hs-578T; SNB-19; DU-145; A498; HCT-15; SK-OV-3; OVCAR-8; SR.
What all share (experiment): DTP human tumour cell line panel, 48 h

On to `CCOC(=O)c1cc2c3c(c(C(C)=O)c(O)c2[nH]1)N(C(C)=O)CC3`, for which the GI50 in the experiment on U-251 was > 100 µM (inactive); in the experiment on CAKI-1, > 100 µM (inactive); in the experiment on SN12C it was > 100 µM (inactive); in the experiment with Malme-3M, 64.3 µM (inactive); in the experiment on NCI/ADR-RES, 29.9 µM (inactive); in the experiment on MDA-MB-231 it was > 100 µM (inactive). Also, the GI50 is 71.4 µM (inactive) in the experiment on NCI-H226; 45.4 µM (inactive) with KM12; > 100 µM (inactive) with NCI-H460; 46 µM (inactive) in the experiment with CCRF-CEM; 63.2 µM (inactive) in the experiment with COLO 205; > 100 µM (inactive) in the experiment on SW-620. In addition, the GI50 is 51.9 µM (inactive) in the experiment on Hs-578T; > 100 µM (inactive) with SNB-19; 82.6 µM (inactive) in the experiment with DU-145; 52.5 µM (inactive) in the experiment on A498; 49.7 µM in the experiment with HCT-15; > 100 µM (inactive) in the experiment on SK-OV-3. Further, the figures for the GI50 with OVCAR-8 and with SR were 38.1 µM (inactive) and 50.6 µM (inactive), respectively.
For the compound `C=CCn1c(N)c(C#N)c(C#N)c1-c1ccccc1`, the GI50 with U-251, in the experiment on CAKI-1, with SN12C, in the experiment with Malme-3M, in the experiment with NCI/ADR-RES and in the experiment on MDA-MB-231 was > 100 µM (inactive) in each case. The GI50 in the experiment with NCI-H226, in the experiment with KM12, in the experiment on CCRF-CEM, with COLO 205, in the experiment on SW-620 and in the experiment with Hs-578T was > 100 µM (inactive) throughout. The GI50 in the experiment on SNB-19 is > 100 µM (inactive); in the experiment with DU-145, > 100 µM (inactive); in the experiment with A498, > 100 µM (inactive); in the experiment on HCT-15, above 100 µM; in the experiment with SK-OV-3 it was > 100 µM (inactive); in the experiment on OVCAR-8, > 100 µM (inactive). Further, in the experiment with SR, the GI50 was > 100 µM (inactive).
As for `COC(=O)C1(Cc2ccc3c(c2)CCC3)Cc2ccccc2C1=O` (configuration not stated), the GI50 is 13.4 µM (inactive) in the experiment with U-251; 19.6 µM (inactive) with CAKI-1; 27.6 µM (inactive) in the experiment on SN12C; 17.5 µM (inactive) with Malme-3M; 7.06 µM (inactive) in the experiment on NCI/ADR-RES; 27.2 µM (inactive) with MDA-MB-231. For the same compound, the GI50 was 18.2 µM (inactive) in the experiment on NCI-H226; 1.55 µM (inactive) with KM12; 28.4 µM (inactive) in the experiment with NCI-H460; 6.97 µM (inactive) with CCRF-CEM; 9.66 µM (inactive) in the experiment with COLO 205; 4.49 µM (inactive) in the experiment with SW-620. In addition, the GI50 in the experiment on Hs-578T is 13.4 µM (inactive); in the experiment on SNB-19 it was 20.7 µM (inactive); in the experiment on DU-145 it was 16.6 µM (inactive); in the experiment with A498, 18.4 µM (inactive); in the experiment on HCT-15 it was 6.76 µM; in the experiment on SK-OV-3, 15.7 µM (inactive). Further, the GI50 in the experiment on OVCAR-8 is 26.1 µM (inactive); in the experiment on SR it was 6.47 µM (inactive).
As for `CCCCCCCC/C=C\CCCCCCCC(=O)OC[C@]1(CO)CCC(=O)O1`, the GI50 with U-251, in the experiment with CAKI-1, in the experiment on SN12C, in the experiment on Malme-3M, with NCI/ADR-RES and in the experiment on MDA-MB-231 was > 100 µM (inactive) in each case. Also, the GI50 in the experiment with NCI-H226, in the experiment with KM12, in the experiment on NCI-H460, in the experiment on CCRF-CEM, in the experiment with COLO 205 and in the experiment with SW-620 was > 100 µM (inactive) throughout. The GI50 in the experiment on Hs-578T was > 100 µM (inactive); in the experiment with SNB-19, > 100 µM (inactive); with DU-145 it was > 100 µM (inactive); in the experiment on A498 it was > 100 µM (inactive); in the experiment on HCT-15, above 100 µM; in the experiment with SK-OV-3, > 100 µM (inactive). Moreover, the GI50 with OVCAR-8 and with SR was > 100 µM (inactive) throughout.
In the case of `O=C(/C=C1\Sc2ccccc2N=C1CC(=O)c1ccccc1)c1ccccc1`, the GI50 in the experiment on U-251 is 2.01 µM (inactive); in the experiment on CAKI-1, 4.12 µM (inactive); with SN12C, 3.88 µM (inactive); in the experiment on Malme-3M, 3.25 µM (inactive); with NCI/ADR-RES, 4.02 µM (inactive); with MDA-MB-231, 6 µM (inactive). The GI50 with NCI-H226 was 7.1 µM (inactive); in the experiment with KM12, 4.76 µM (inactive); with NCI-H460 it was 3.89 µM (inactive); in the experiment on CCRF-CEM, 2.36 µM (inactive); with COLO 205, 10.3 µM (inactive); with SW-620 it was 3.97 µM (inactive). Further, the GI50 was 44.7 µM (inactive) in the experiment on Hs-578T; 69.7 µM (inactive) with SNB-19; 6.65 µM (inactive) in the experiment on DU-145; 31.8 µM (inactive) in the experiment with A498; 2.65 µM in the experiment with HCT-15; 9.82 µM (inactive) with SK-OV-3. The GI50 in the experiment with OVCAR-8 is 3.67 µM (inactive); with SR it was 1.4 µM (inactive).
As for `CCOC(=O)CC1(O)CCCCC1(Sc1ccc(C)cc1)Sc1ccc(C)cc1` (configuration not stated), the GI50 in the experiment with U-251 is 33.7 µM (inactive); in the experiment with CAKI-1, 32.2 µM (inactive); in the experiment with SN12C, 39.4 µM (inactive); in the experiment with Malme-3M it was 30.5 µM (inactive); with NCI/ADR-RES, 65.9 µM (inactive); in the experiment on MDA-MB-231, 77.4 µM (inactive). Further, the GI50 with NCI-H226 is 34.4 µM (inactive); in the experiment with KM12, 44.2 µM (inactive); in the experiment on NCI-H460, 56.4 µM (inactive); in the experiment on CCRF-CEM it was 4.76 µM (inactive); in the experiment on COLO 205, 42.2 µM (inactive); in the experiment with SW-620, 62.4 µM (inactive). The GI50 was 25.4 µM (inactive) with Hs-578T; 81.1 µM (inactive) with SNB-19; 59.2 µM (inactive) in the experiment with DU-145; > 100 µM (inactive) in the experiment on A498; 34.4 µM with HCT-15; > 100 µM (inactive) with SK-OV-3. In addition, the GI50 in the experiment with OVCAR-8 was 56.1 µM (inactive); with SR, 31.3 µM (inactive).
Take `Cc1c2ncccc2cc2oc3ccccc3c(=O)c12`: the GI50 was 17.7 µM (inactive) in the experiment with CAKI-1; 24 µM (inactive) in the experiment on SN12C; 68.4 µM (inactive) in the experiment on Malme-3M; 21.4 µM (inactive) in the experiment with NCI/ADR-RES; 92 µM (inactive) with MDA-MB-231; 38.4 µM (inactive) with NCI-H226. Further, the GI50 in the experiment on KM12 is 55.6 µM (inactive); in the experiment on NCI-H460, 5.46 µM (inactive); in the experiment on CCRF-CEM, 16 µM (inactive); in the experiment with COLO 205, 31.2 µM (inactive); in the experiment on SW-620 it was 33.5 µM (inactive); in the experiment with Hs-578T it was > 100 µM (inactive). Further, the GI50 with DU-145 was 29.2 µM (inactive); with A498, 81.5 µM (inactive); in the experiment with HCT-15, 41.8 µM; in the experiment on SK-OV-3, > 100 µM (inactive); in the experiment with OVCAR-8 it was 80.2 µM (inactive); with SR, 41.2 µM (inactive).
Consider `O=[N+]([O-])c1ccc2nc(Nc3ccccc3)c(Nc3ccccc3)nc2c1`, for which the GI50 was 0.512 µM (active) in the experiment with U-251; 0.802 µM (active) in the experiment on CAKI-1; 1.18 µM (inactive) in the experiment with SN12C; 1.84 µM (inactive) in the experiment on Malme-3M; 1.46 µM (inactive) in the experiment on NCI/ADR-RES; 1.36 µM (inactive) in the experiment on MDA-MB-231. The GI50 in the experiment with NCI-H226 was 2.4 µM (inactive); with KM12, 1.3 µM (inactive); in the experiment with NCI-H460, 0.42 µM (active); with CCRF-CEM, 0.875 µM (active); with COLO 205 it was 1.62 µM (inactive); with SW-620, 1.56 µM (inactive). For the same compound, the GI50 in the experiment with Hs-578T is 2.65 µM (inactive); with SNB-19 it was 1.15 µM (inactive); with DU-145, 1.77 µM (inactive); with A498, 0.929 µM (active); with HCT-15 it was 0.753 µM; with SK-OV-3, 0.787 µM (active). Further, the results for the GI50 in the experiment on OVCAR-8 and with SR were 1.03 µM (active) and 0.489 µM (active), respectively.
